The assay has as its system NL-RLuc virus (recombinant NL4-3 HIV with Renilla Luciferase gene). The experiment in a line: Inhibition of HIV replication (NL-RLuc virus in MT-2 cells, luciferase readout). The following applies: MT2, 120 h. Format: cell-based, Human immunodeficiency virus (HIV). A digest of the protocol: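 EC50 derived via median effect equation from at least 2 experiments, using luciferase expression as virus-growth readout. Replication-competent NL-RLuc reporter virus (nef partly replaced by Renilla luciferase) infected MT-2 cells with serial compound dilutions; 5-day incubation in RPMI 1640 plus 10% FBS.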
With `Cc1nc(C)c([C@H](OC(C)(C)C)C(=O)O)c(N2CCC(C)(C)CC2)c1-c1ccc2c(c1)CCN(c1nccc(N3CCCC3)n1)C2` [Example 21, (2S)-2-(tert-Butoxy)-2-[4-(4,4-dimethylpiperidin-1-yl)-2,6-dimethyl-5-{2-[4-(pyrrolidin-1-yl)pyrimidin-2-yl]-1,2,3,4-tetrahydroisoquinolin-6-yl}pyridin-3-yl]acetic Acid], the EC50 – broadly, the concentration needed to bring the measured effect to its halfway point – turned out to be 2 nM. With `CC1(C)CCN(c2c(-c3ccc4c(c3)CCN(c3ncnc5c3oc3ccccc35)C4)c(CO)nc(Cl)c2[C@H](OC(C)(C)C)C(=O)O)CC1` [Example 95, (S)-2-(5-(2-(Benzofuro[3,2-d]pyrimidin-4-yl)-1,2,3,4-tetrahydroisoquinolin-6-yl)-2-chloro-4-(4,4-dimethylpiperidin-1-yl)-6-(hydroxymethyl)pyridin-3-yl)-2-(tert-butoxy)acetic acid] the figure was 1 nM. For the compound `Cc1cccc(Cl)c1CN1CCc2cc(-c3c(CF)nc(C)c([C@H](OC(C)(C)C)C(=O)O)c3N3CCC(C)(C)CC3)ccc2C1` [Example 158, (S)-2-(tert-Butoxy)-2-(5-(2-(2-chloro-6-methylbenzyl)-1,2,3,4-tetrahydroisoquinolin-6-yl)-4-(4,4-dimethylpiperidin-1-yl)-6-(fluoromethyl)-2-methylpyridin-3-yl)acetic Acid], the EC50 came to 5 nM. With `Cc1nc(C)c([C@H](OC(C)(C)C)C(=O)O)c(N2CCC(C)(C)CC2)c1-c1ccc2c(c1)CCN(c1cccc(N3CCOCC3)n1)C2` [Example 66, (S)-2-(tert-Butoxy)-2-(4-(4,4-dimethylpiperidin-1-yl)-2,6-dimethyl-5-(2-(6-morpholinopyridin-2-yl)-1,2,3,4-tetrahydroisoquinolin-6-yl)pyridin-3-yl)acetic Acid] the figure was 13 nM. `CC1(C)CCN(c2c(-c3ccc4c(c3)CCN(c3ncnc5c3oc3ccccc35)C4)cnc(Cl)c2[C@H](OC(C)(C)C)C(=O)O)CC1` [Example 103, (S)-2-(5-(2-(Benzofuro[3,2-d]pyrimidin-4-yl)-1,2,3,4-tetrahydroisoquinolin-6-yl)-2-chloro-4-(4,4-dimethylpiperidin-1-yl)pyridin-3-yl)-2-(tert-butoxy)acetic Acid]: the EC50 came to 2 nM. Consider `Cc1ncc(-c2ccc3c(c2)CCN(c2ncnc4c2oc2ncccc24)C3)c(N2CCC(C)(C)CC2)c1[C@H](OC(C)(C)C)C(=O)O` [Example 48, (2S)-2-(tert-Butoxy)-2-[4-(4,4-dimethylpiperidin-1-yl)-2-methyl-5-(2-{8-oxa-3,5,10-triazatricyclo[7.4.0.0^2,7]trideca-1(9),2,4,6,10,12-hexaen-6-yl}-1,2,3,4-tetrahydroisoquinolin-6-yl)pyridin-3-yl]acetic Acid], for which the EC50 turned out to be 0.6 nM. Regarding `Cc1cccc(Cl)c1CN1CCc2cc(-c3c(NCCN(C)C)nc(C)c([C@H](OC(C)(C)C)C(=O)O)c3N3CCC(C)(C)CC3)ccc2C1` [Example 3, (S)-2-(tert-Butoxy)-2-(5-(2-(2-chloro-6-methylbenzyl)-1,2,3,4-tetrahydroisoquinolin-6-yl)-6-((2-(dimethylamino)ethyl)amino)-4-(4,4-dimethylpiperidin-1-yl)-2-methylpyridin-3-yl)acetic Acid], the EC50 is 5 nM.

Consider `Cc1ncc(-c2ccc3c(c2)CCN(c2ncnc4c2oc2ccccc24)C3)c(N2CCC(C)(C)CC2)c1[C@H](OC(C)(C)C)C(=O)O` [Example 49, (2S)-2-(tert-Butoxy)-2-[4-(4,4-dimethylpiperidin-1-yl)-2-methyl-5-(2-{8-oxa-3,5-diazatricyclo[7.4.0.0^2,7]trideca-1(9),2(7),3,5,10,12-hexaen-6-yl}-1,2,3,4-tetrahydroisoquinolin-6-yl)pyridin-3-yl]acetic Acid], for which the half-maximal effective concentration (EC50) worked out at 1 nM. As to `Cc1nc(C)c([C@H](OC(C)(C)C)C(=O)O)c(N2CCC(C)(C)CC2)c1-c1ccc2c(c1)CCN(c1nccc(N3C4CCCC3COC4)n1)C2` [Example 35, (2S)-2-(tert-Butoxy)-2-[4-(4,4-dimethylpiperidin-1-yl)-2,6-dimethyl-5-[2-(4-{3-oxa-9-azabicyclo[3.3.1]nonan-9-yl}pyrimidin-2-yl)-1,2,3,4-tetrahydroisoquinolin-6-yl]pyridin-3-yl]acetic Acid], the half-maximal effective concentration (EC50) was determined as 3 nM. With `Cc1nc(CO)c(-c2ccc3c(c2)CCN(c2nccc(-c4cccnc4)n2)C3)c(N2CCC(C)(C)CC2)c1[C@H](OC(C)(C)C)C(=O)O` [Example 164, (S)-2-(tert-Butoxy)-2-(4-(4,4-dimethylpiperidin-1-yl)-6-(hydroxymethyl)-2-methyl-5-(2-(4-(pyridin-3-yl)pyrimidin-2-yl)-1,2,3,4-tetrahydroisoquinolin-6-yl)pyridin-3-yl)acetic Acid] the figure was 2 nM; with `CC1(C)CCN(c2c(-c3ccc4c(c3)CCN(c3nccc(-c5cccnc5)n3)C4)c(N)nc(Cl)c2[C@H](OC(C)(C)C)C(=O)O)CC1` [Example 101, (S)-2-(6-Amino-2-chloro-4-(4,4-dimethylpiperidin-1-yl)-5-(2-(4-(pyridin-3-yl)pyrimidin-2-yl)-1,2,3,4-tetrahydroisoquinolin-6-yl)pyridin-3-yl)-2-(tert-butoxy)acetic Acid], 2 nM. Regarding `Cc1nc(C)c([C@H](OC(C)(C)C)C(=O)O)c(N2CCC(C)(C)CC2)c1-c1ccc2c(c1)CCN(c1cc(N3CCC(N4CCN(C)CC4)CC3)ncn1)C2` [Example 136, (S)-2-(tert-Butoxy)-2-(4-(4,4-dimethylpiperidin-1-yl)-2,6-dimethyl-5-(2-(6-(4-(4-methylpiperazin-1-yl)piperidin-1-yl)pyrimidin-4-yl)-1,2,3,4-tetrahydroisoquinolin-6-yl)pyridin-3-yl)acetic Acid], the EC50 is 16 nM. For the compound `Cc1nc(N2CCOCC2)cc(N2CCc3cc(-c4c(C)nc(C)c([C@H](OC(C)(C)C)C(=O)O)c4N4CCC(C)(C)CC4)ccc3C2)n1` [Example 64, (S)-2-(tert-Butoxy)-2-(4-(4,4-dimethylpiperidin-1-yl)-2,6-dimethyl-5-(2-(2-methyl-6-morpholinopyrimidin-4-yl)-1,2,3,4-tetrahydroisoquinolin-6-yl)pyridin-3-yl)acetic Acid], the 50% effective concentration (EC50) amounted to 8 nM. With `Cc1nc(C)c([C@H](OC(C)(C)C)C(=O)O)c(N2CCC(C)(C)CC2)c1-c1ccc2c(c1)CCN(c1nccc(-c3ccccn3)n1)C2` [Example 109, (S)-2-(tert-Butoxy)-2-(4-(4,4-dimethylpiperidin-1-yl)-2,6-dimethyl-5-(2-(4-(pyridin-2-yl)pyrimidin-2-yl)-1,2,3,4-tetrahydroisoquinolin-6-yl)pyridin-3-yl)acetic Acid] the figure was 1 nM; with `Cc1nc(NC2CCN(C)CC2)c(-c2ccc3c(c2)CCN(c2ncnc4c2oc2ccccc24)C3)c(N2CCC(C)(C)CC2)c1[C@H](OC(C)(C)C)C(=O)O` [Example 12, (S)-2-(5-(2-(Benzofuro[3,2-d]pyrimidin-4-yl)-1,2,3,4-tetrahydroisoquinolin-6-yl)-4-(4,4-dimethylpiperidin-1-yl)-2-methyl-6-((1-methylpiperidin-4-yl)amino)pyridin-3-yl)-2-(tert-butoxy)acetic Acid], 1 nM. Take `Cc1nc(C)c([C@H](OC(C)(C)C)C(=O)O)c(N2CCC(C)(C)CC2)c1-c1ccc2c(c1)CCN(c1nccc(N(C)C)n1)C2` [Example 17, (2S)-2-(tert-Butoxy)-2-(5-{2-[4-(dimethylamino)pyrimidin-2-yl]-1,2,3,4-tetrahydroisoquinolin-6-yl}-4-(4,4-dimethylpiperidin-1-yl)-2,6-dimethylpyridin-3-yl)acetic Acid]: the concentration for a half-maximal effect (EC50) is 1 nM. With `Cc1nc(C)c([C@H](OC(C)(C)C)C(=O)O)c(N2CCC(C)(C)CC2)c1-c1ccc2c(c1)CCN(c1ccnc(N3CCCCC3)n1)C2` [Example 22, (2S)-2-(tert-Butoxy)-2-[4-(4,4-dimethylpiperidin-1-yl)-2,6-dimethyl-5-{2-[2-(piperidin-1-yl)pyrimidin-4-yl]-1,2,3,4-tetrahydroisoquinolin-6-yl}pyridin-3-yl]acetic Acid] the figure was 3 nM; with `Cc1cccc(Cl)c1CN1CCc2cc(-c3c(CNCCCc4ccccc4)nc(C)c([C@H](OC(C)(C)C)C(=O)O)c3N3CCC(C)(C)CC3)ccc2C1` [Example 154, (S)-2-(tert-Butoxy)-2-(5-(2-(2-chloro-6-methylbenzyl)-1,2,3,4-tetrahydroisoquinolin-6-yl)-4-(4,4-dimethylpiperidin-1-yl)-2-methyl-6-(((3-phenylpropyl)amino)methyl)pyridin-3-yl)acetic Acid], 97 nM. Regarding `Cc1nc(C)c([C@H](OC(C)(C)C)C(=O)O)c(N2CCC(C)(C)CC2)c1-c1ccc2c(c1)CCN(c1ncc(F)c(N3CCOCC3)n1)C2` [Example 38, (2S)-2-(tert-Butoxy)-2-[4-(4,4-dimethylpiperidin-1-yl)-5-{2-[5-fluoro-4-(morpholin-4-yl)pyrimidin-2-yl]-1,2,3,4-tetrahydroisoquinolin-6-yl}-2,6-dimethylpyridin-3-yl]acetic Acid], the EC50 is 3 nM.

For the compound `Cc1nc(C)c([C@H](OC(C)(C)C)C(=O)O)c(N2CCC(C)(C)CC2)c1-c1ccc2c(c1)CCN(c1cnnc(N3CCOCC3)c1)C2` [Example 73, (S)-2-(tert-Butoxy)-2-(4-(4,4-dimethylpiperidin-1-yl)-2,6-dimethyl-5-(2-(6-morpholinopyridazin-4-yl)-1,2,3,4-tetrahydroisoquinolin-6-yl)pyridin-3-yl)acetic Acid], the half-maximal effective concentration (EC50) turned out to be 69 nM. With `CCOc1nc(N2CCOCC2)nc(N2CCc3cc(-c4c(C)nc(C)c([C@H](OC(C)(C)C)C(=O)O)c4N4CCC(C)(C)CC4)ccc3C2)n1` [Example 59, (S)-2-(tert-Butoxy)-2-(4-(4,4-dimethylpiperidin-1-yl)-5-(2-(4-ethoxy-6-morpholino-1,3,5-triazin-2-yl)-1,2,3,4-tetrahydroisoquinolin-6-yl)-2,6-dimethylpyridin-3-yl)acetic Acid], the 50% effective concentration (EC50) worked out at 3 nM.

The values above are taken from patent US20200016136A1 (VIIV HEALTHCARE UK (NO. 5) LIMITED, priority 2017, published 2020).
